# In publication PMC7721897, “Metabolism and pharmacokinetics of a novel polyphenol fatty acid ester phloridzin docosahexaenoate in Balb/c female mice” (Scientific Reports, 2020):
# Read-outs that look alike come from different tables or passages of the source.
# Tests used:
# [1] = In vitro phase I metabolism with mouse hepatic microsomes and NADPH; assay type: in vitro ADME; settings: liver microsomal enzymes of C57BL/6 male mice
# Procedure: Figure 2 PZ-DHA undergoes phase I metabolism in the presence of freshly prepared mouse liver microsomes. PZ-DHA (1.1 µM) was incubated with 100 mM NADPH in the presence of mouse liver microsome for 1 h at 37 °C. Metabolites from PZ-DHA (A) hydrolysis, (B) and (C) hydroxylation, and (D) epoxidation were identified.
# Mouse hepatic microsomes were freshly isolated from the livers of male C57BL/6 mice, and the entire extraction procedure was carried out at 4 °C. Mouse livers were minced and homogenized in KCl/sucrose phosphate buffer (0.154 M KCl, 0.25 M sucrose in 50 mM potassium phosphate buffer (K2HPO4/KH2PO4) (PPB), pH 7.5). Cell/tissue debris was separated out by centrifuging homogenized livers at 12,000×g for 22 min at 4 °C. The supernatant was collected and centrifuged at 100,000×g for 70 min at 4 °C. The pellet was gently rinsed using 50 mM PPB and resuspended in glycerol/phosphate buffer (20% glycerol (v/v), 80% 0.1 M PPB pH 7.5). The protein concentration was determined using a Bradford assay (R^2 = 1.00), and microsomes were stored at − 80 °C.
# Potential in vitro phase I and phase II metabolites of PZ-DHA were detected by incubating PZ-DHA in the presence of freshly-prepared mouse hepatic microsome preparations. Phase I metabolites were determined by incubating 1.1 µM PZ-DHA with 100 mM NADPH in the presence of mouse hepatic microsomes for 1 h at 37 °C. Phase II methylation, glucuronidation, and sulphation of PZ-DHA was determined by incubating 1.1 µM PZ-DHA with 1 mM SAM, 2 mM UDPGA, and 0.5 mM PAPS, respectively, in the presence of freshly prepared mouse hepatic microsome for 1 h at 37 °C (Supplementary information Tables S1–S4). To assess the efficiency of the metabolic process, controls (no PZ-DHA control, no mouse hepatic microsome control and no co-factor control) were incubated in parallel to the test. Reactions were terminated by adding a mixture of 4 mL ice-cold acetonitrile:acetone (80:20) containing 0.05 mg/mL quercetin as the internal standard. Proteins were precipitated by incubating the reaction mixture at 4 °C overnight and separated by centrifuging at 14,000 × g for 15 min at 4 °C. Supernatants were concentrated under nitrogen flush, filtered and PZ-DHA and/or PZ-DHA metabolites were identified using a UPLC-ESI–MS/MS system (Waters Limited, Mississauga, ON, Canada).
# PZ-DHA and/or PZ-DHA metabolites in malignant/non-malignant epithelial cell lysates, in vitro microsome enzyme reaction mixtures, and mouse serum aliquots were determined using UPLC-ESI–MS/MS instrument (Waters Limited, Mississauga, ON, Canada). All mass spectroscopic analyses were performed using mass scan (full-scan, identification of unknowns) and single ion monitoring (SIM; quantification of PZ, DHA, PZ-DHA, and quercetin) modes of a Waters H-class UPLC separations module coupled with a Micromass Quattro micro API MS/MS system and MassLynx V4.0 control software. An Allure biphenyl column (100 mm × 2.1 mm, 1.8 μm, Restek Pure Chromatography, Bellefonte, PA, USA) and a flow rate of 0.3 mL/min were employed. ESI- mode with a capillary voltage of 3000 V and a nebulizer gas (N2) temperature of 375 °C were used. A volume of 2 µL sample was injected.
# [2] = Tissue distribution of PZ-DHA and metabolites after intraperitoneal injection; assay type: in vivo, Balb/c female mice; settings: female, Balb/c, mouse, intraperitoneal, 100 mg/kg
# Procedure: Figure 5 PZ-DHA and metabolites were detected in various organs of PZ-DHA-treated Balb/c female mice. PZ-DHA (100 mg/kg) was administered by intraperitoneal injection to Balb/c female mice and liver, lungs, kidneys, spleen and brain were harvested. Organs were homogenized and PZ-DHA in (A) liver, kidneys, lungs, spleen, and brain was identified and quantified using a calibration curve. The abundance of (B) 4,4′,6′-tri-O-methyl-phloridzin docosahexaenoate in liver, kidneys, lungs, and serum) and (C) phloridzin docosahexaenoate-4,4′-di-O-sulphide in the liver was determined in PZ-DHA equivalence.
# Pharmacokinetic parameters and in vivo generation of PZ-DHA metabolites were studied using Balb/c female mice. Mice were randomly divided into six groups (n = 4/group) and PZ-DHA (100 mg/kg) was administered by intraperitoneal injection. For each mouse, a single blood collection was performed by cardiac puncture at one of six different time points (t = 15, 30, 60, 90, 120, and 240 min). At the end of blood collection, mice were euthanized by cervical dislocation and organs (liver, lungs, kidneys, spleen, and brain) were harvested. Blood samples were allowed to clot by leaving undisturbed at room temperature for 1 h, and serum was separated by centrifuging at 2000×g for 10 min at 4 °C. The serum was carefully removed and stored on ice until further processing. Serum proteins were precipitated by incubating an aliquot of serum with a mixture of acetonitrile:acetone (80:20) containing 0.1 mg/mL quercetin (internal standard) at 4 °C overnight. The supernatant was separated by centrifuging at 14,000×g for 10 min at 4 °C. Excess solvent was evaporated using nitrogen flush and mixed with methanol and filtered. PZ-DHA-metabolites in the filtrate were identified using a UPLC-ESI–MS/MS (Waters Limited, Mississauga, ON, Canada). Organs were homogenized in PBS (1:5 w/v). Supernatants were collected by centrifugation at 14,000 × g for 15 min at 4 °C. Proteins were precipitated by incubating in acetonitrile:acetone (80:20) containing 0.1 mg/mL quercetin (internal standard) at 4 °C overnight. Supernatants were treated as explained above, and PZ-DHA and/or PZ-DHA-metabolites were identified.
# 4T1 breast cancer cells = tested on: 4T1 breast cancer cells; parameters: method as in PMID 31473253; settings: intraperitoneal, 100 mg/kg every 2 days for 10 days; cited from earlier work
# [3] = brain/serum, read-out: Tissue/serum ratio of PZ-DHA (Mean ± SD) Brain/serum
# [4] = kidneys/serum, read-out: Tissue/serum ratio of PZ-DHA (Mean ± SD) Kidneys/serum
# [5] = liver/serum, read-out: Tissue/serum ratio of PZ-DHA (Mean ± SD) Liver/serum
# [6] = lungs/serum, read-out: Tissue/serum ratio of PZ-DHA (Mean ± SD) Lungs/serum
# [7] = spleen/serum, read-out: Tissue/serum ratio of PZ-DHA (Mean ± SD) Spleen/serum
smiles,measurement,setting,value
"CC/C=C\C/C=C\C/C=C\C/C=C\C/C=C\C/C=C\CCC(=O)OC[C@H]1O[C@@H](Oc2cc(O)cc(O)c2C(=O)CCc2ccc(O)cc2)[C@H](O)[C@@H](O)[C@@H]1O [PZ-DHA, phloridzin docosahexaenoate]",NADPH-dependent phase I bio-transformations identified,[1],"hydrolysis, hydroxylation, and epoxidation"
same,Kp at 15 min,[2]; [3],0.51 ± 0.17
same,Kp at 30 min,[2]; [3],0.64 ± 0.11
same,Kp at 60 min,[2]; [3],0.95 ± 0.68
same,Kp at 90 min,[2]; [3],1.01 ± 0.19
same,Kp at 120 min,[2]; [3],1.31 ± 0.67
same,Kp at 240 min,[2]; [3],1.94 ± 0.75
same,Kp at 15 min,[2]; [4],0.66 ± 0.03
same,Kp at 30 min,[2]; [4],1.29 ± 0.22
same,Kp at 60 min,[2]; [4],0.81 ± 0.34
same,Kp at 90 min,[2]; [4],0.89 ± 0.26
same,Kp at 120 min,[2]; [4],2.71 ± 1.41
same,Kp at 240 min,[2]; [4],2.71 ± 1.08
same,Kp at 15 min,[2]; [5],0.14 ± 0.06
same,Kp at 30 min,[2]; [5],0.16 ± 0.08
same,Kp at 60 min,[2]; [5],4.68 ± 2.02
same,Kp at 90 min,[2]; [5],2.69 ± 2.17
same,Kp at 120 min,[2]; [5],1.03 ± 0.73
same,Kp at 240 min,[2]; [5],0.99 ± 0.23
same,Kp at 15 min,[2]; [6],3.33 ± 1.51
same,Kp at 30 min,[2]; [6],2.04 ± 1.09
same,Kp at 60 min,[2]; [6],1.05 ± 0.014
same,Kp at 90 min,[2]; [6],3.51 ± 2.44
same,Kp at 120 min,[2]; [6],3.82 ± 1.74
same,Kp at 240 min,[2]; [6],4.97 ± 1.37
same,Kp at 15 min,[2]; [7],3.29 ± 1.56
same,Kp at 30 min,[2]; [7],3.17 ± 0.72
same,Kp at 60 min,[2]; [7],4.18 ± 1.01
same,Kp at 90 min,[2]; [7],5.24 ± 1.75
same,Kp at 120 min,[2]; [7],10.9 ± 8.42
same,Kp at 240 min,[2]; [7],16.1 ± 5.98
same,tumor growth and metastasis of 4T1 breast cancer cells,4T1 breast cancer cells,inhibits tumor growth and metastasis
